The NIST ThermoML archive (doi:10.1016/j.jct.2017.07.004)
± gives the expanded uncertainty stated by the source.

Experiment: xn = mol fraction of the nth substance listed
Conditions: 100 kPa, Liquid; for viscosity: Concentric cylinders viscometry; for mass density: Vibrating tube method

CCC=O [propanal] + CC(C)O
Conditions | mass density [kg/m3] | viscosity [mPa·s]
293.15 K, x1 = 0.0812 | 792 ± 1 | 2.37 ± 0.19
293.15 K, x1 = 0.16 | 797.2 ± 1 | 2.3 ± 0.18
293.15 K, x1 = 0.24 | 801.6 ± 1 | 2.2 ± 0.18
293.15 K, x1 = 0.3499 | 806.4 ± 1 | 2 ± 0.16
293.15 K, x1 = 0.4402 | 809.2 ± 1 | 1.81 ± 0.15
293.15 K, x1 = 0.5619 | 811.4 ± 1 | 1.52 ± 0.12
293.15 K, x1 = 0.6483 | 811.8 ± 1 | 1.3 ± 0.1
293.15 K, x1 = 0.74 | 811.3 ± 1 | 1.06 ± 0.09
293.15 K, x1 = 0.85 | 809.1 ± 1 | 0.76 ± 0.06
293.15 K, x1 = 0.94 | 806 ± 1 | 0.51 ± 0.04
293.15 K, x1 = 1 | 802.4 ± 1 | 0.34 ± 0.03
298.15 K, x1 = 0.0812 | 786.6 ± 1 | 2.04 ± 0.16
298.15 K, x1 = 0.16 | 791.5 ± 1 | 1.97 ± 0.16
298.15 K, x1 = 0.24 | 795.9 ± 1 | 1.88 ± 0.15
298.15 K, x1 = 0.3499 | 800.4 ± 1 | 1.72 ± 0.14
298.15 K, x1 = 0.4402 | 803 ± 1 | 1.56 ± 0.13
298.15 K, x1 = 0.5619 | 804.9 ± 1 | 1.32 ± 0.11
298.15 K, x1 = 0.6483 | 805 ± 1 | 1.13 ± 0.09
298.15 K, x1 = 0.74 | 804.1 ± 1 | 0.93 ± 0.08
298.15 K, x1 = 0.85 | 802.3 ± 1 | 0.67 ± 0.05
298.15 K, x1 = 0.94 | 799.1 ± 1 | 0.46 ± 0.04
298.15 K, x1 = 1 | 796.2 ± 1 | 0.33 ± 0.03
303.15 K, x1 = 0.0812 | 781.5 ± 1 | 1.76 ± 0.14
303.15 K, x1 = 0.16 | 786.2 ± 1 | 1.69 ± 0.14
303.15 K, x1 = 0.24 | 790 ± 1 | 1.61 ± 0.13
303.15 K, x1 = 0.3499 | 794.5 ± 1 | 1.47 ± 0.12
303.15 K, x1 = 0.4402 | 797.1 ± 1 | 1.33 ± 0.11
303.15 K, x1 = 0.5619 | 798.8 ± 1 | 1.13 ± 0.09
303.15 K, x1 = 0.6483 | 798.8 ± 1 | 0.97 ± 0.08
303.15 K, x1 = 0.74 | 797.8 ± 1 | 0.8 ± 0.06
303.15 K, x1 = 0.85 | 795.8 ± 1 | 0.59 ± 0.05
303.15 K, x1 = 0.94 | 792.6 ± 1 | 0.42 ± 0.03
303.15 K, x1 = 1 | 790.3 ± 1 | 0.31 ± 0.03
308.15 K, x1 = 0.0812 | 776.7 ± 1 | 1.52 ± 0.12
308.15 K, x1 = 0.16 | 780.9 ± 1 | 1.46 ± 0.12
308.15 K, x1 = 0.24 | 784.3 ± 1 | 1.38 ± 0.11
308.15 K, x1 = 0.3499 | 788.2 ± 1 | 1.26 ± 0.1
308.15 K, x1 = 0.4402 | 790.5 ± 1 | 1.14 ± 0.09
308.15 K, x1 = 0.5619 | 792 ± 1 | 0.97 ± 0.08
308.15 K, x1 = 0.6483 | 792 ± 1 | 0.83 ± 0.07
308.15 K, x1 = 0.74 | 791.4 ± 1 | 0.69 ± 0.06
308.15 K, x1 = 0.85 | 789.5 ± 1 | 0.52 ± 0.04
308.15 K, x1 = 0.94 | 786.4 ± 1 | 0.39 ± 0.03
308.15 K, x1 = 1 | 784.5 ± 1 | 0.3 ± 0.03
313.15 K, x1 = 0.0812 | 771.8 ± 1 | 1.31 ± 0.11
313.15 K, x1 = 0.16 | 775.5 ± 1 | 1.24 ± 0.1
313.15 K, x1 = 0.24 | 778.8 ± 1 | 1.17 ± 0.09
313.15 K, x1 = 0.3499 | 782.4 ± 1 | 1.06 ± 0.09
313.15 K, x1 = 0.4402 | 784.3 ± 1 | 0.96 ± 0.08
313.15 K, x1 = 0.5619 | 785.7 ± 1 | 0.83 ± 0.07
313.15 K, x1 = 0.6483 | 785.8 ± 1 | 0.72 ± 0.06
313.15 K, x1 = 0.74 | 785.3 ± 1 | 0.61 ± 0.05
313.15 K, x1 = 0.85 | 783.3 ± 1 | 0.47 ± 0.04
313.15 K, x1 = 0.94 | 780.8 ± 1 | 0.36 ± 0.03
313.15 K, x1 = 1 | 779 ± 1 | 0.28 ± 0.02
318.15 K, x1 = 0.0812 | 766.8 ± 1 | 1.14 ± 0.09
318.15 K, x1 = 0.16 | 770.2 ± 1 | 1.08 ± 0.09
318.15 K, x1 = 0.24 | 773.1 ± 1 | 1.01 ± 0.08
318.15 K, x1 = 0.3499 | 776.5 ± 1 | 0.91 ± 0.07
318.15 K, x1 = 0.4402 | 778.4 ± 1 | 0.83 ± 0.07
318.15 K, x1 = 0.5619 | 779.7 ± 1 | 0.71 ± 0.06
318.15 K, x1 = 0.6483 | 779.7 ± 1 | 0.63 ± 0.05
318.15 K, x1 = 0.74 | 778.9 ± 1 | 0.53 ± 0.04
318.15 K, x1 = 0.85 | 777.2 ± 1 | 0.42 ± 0.03
318.15 K, x1 = 0.94 | 775.4 ± 1 | 0.33 ± 0.03
318.15 K, x1 = 1 | 773.5 ± 1 | 0.27 ± 0.02
323.15 K, x1 = 0.0812 | 761.6 ± 1 | 0.99 ± 0.08
323.15 K, x1 = 0.16 | 764.6 ± 1 | 0.94 ± 0.08
323.15 K, x1 = 0.24 | 767.1 ± 1 | 0.87 ± 0.07
323.15 K, x1 = 0.3499 | 770 ± 1 | 0.79 ± 0.06
323.15 K, x1 = 0.4402 | 771.7 ± 1 | 0.72 ± 0.06
323.15 K, x1 = 0.5619 | 772.8 ± 1 | 0.62 ± 0.05
323.15 K, x1 = 0.6483 | 772.8 ± 1 | 0.55 ± 0.04
323.15 K, x1 = 0.74 | 772.4 ± 1 | 0.47 ± 0.04
323.15 K, x1 = 0.85 | 770.9 ± 1 | 0.38 ± 0.03
323.15 K, x1 = 0.94 | 769.4 ± 1 | 0.3 ± 0.03
323.15 K, x1 = 1 | 768.2 ± 1 | 0.25 ± 0.02
